Assay results as given in patent US4336268A, “Cyclohexene derivative analgesics” (Hoffmann-La Roche Inc., priority 1980, dated 1982).
Structures can show the parent of a compound that is named as a salt.

Tests used:
Assay type in all cases: in vivo
[1] = "writhing test" (analgesic activity); conditions: p.o.; for ED50: Mus musculus, po
Text: (§1) In the Table which follows are compiled the ED50 values obtained in this test with representative compounds of formula I. The Table also contains data relating to the acute toxicity of the compounds, that is, LD50 in mg/kg in the case of single oral administration to mice.

[2] = acute toxicity, single oral administration to mice; conditions: mouse, in vivo
Text: as §1

[3] = tested on: mice; assay: acute toxicity, single oral administration to mice
Text: as §1

Row | Compound | ED50 ([1]; 1 h, after 60 min.) | LD50 [2] | ED50 in the "writhing test" ([1]; after 60 min., hydrochloride, 60 min) | LD50 [3] | ED50 ([1]; 0.5 h, after 30 min.)
1 | COc1cccc(C2(CCN(C)C)C=CCCC2)c1.Cl (single isomer, unassigned; (+)) [(+)-1-(m-Methoxyphenyl)-N,N-dimethyl-2-cyclohexene-1-ethylamine hydrochloride] | 24 mg/kg | 250 to 500 mg/kg | – | – | –
2 | COc1cccc(C2(CCN(C)C)C=CCCC2)c1.Cl (single isomer, unassigned; (-)) [(-)-1-(m-Methoxyphenyl)-N,N-dimethyl-2-cyclohexene-1-ethylam] [(-)-1-(m-Methoxyphenyl)-N,N-dimethyl-2-cyclohexene-1-ethylamine hydrochloride] | – | – | 19 mg/kg | 250 to 500 mg/kg | –
3 | CN(C)CCC1(c2cccc(O)c2)C=CCCC1 (racemic) [rac. 1-(m-Hydroxyphenyl)-N,N-dimethyl-2-cyclohexene-1-ethylamine hydrochloride] | 26 mg/kg | 250 to 500 mg/kg | – | – | 41 mg/kg
4 | COc1cccc(C2(CCN(C)C)C=CCCC2)c1 (racemic) [rac. 1-(m-methoxyphenyl)-N,N-dimethyl-2-cyclohexene-1-ethylamine hydrochloride] | 35 mg/kg | 150 to 300 mg/kg | – | – | 33 mg/kg
